Earlier results on two compounds are cited in US20090291974A1, “BOSENTAN SALTS” (priority 2008, published 2009).

Assay in data set [1]: not given
The source holds these as a separate data set.

For data set [2] the following is noted: acidic and basic centers, overall value.

In the case of `COc1ccccc1Oc1c(NS(=O)(=O)c2ccc(C(C)(C)C)cc2)nc(-c2ncccn2)nc1OCCO` [Bosentan monohydrate, bosentan monohydrate], the solubility in acetone result (acetone) is listed as “freely soluble”. For the same compound, for the setting “dichloromethane”, the solubility in dichloromethane result is listed as “freely soluble”. Further, the solubility in ethanol entry (ethanol) is “soluble”. Also, the “solubility in ethyl acetate” value (ethyl acetate) is recorded as “soluble”. In addition, the solubility in hexane result (hexane) is recorded as “very slightly soluble”. For the same compound, the solubility in isopropanol entry (isopropanol) was “slightly soluble”. The solubility in methanol entry (methanol) is on record as “slightly soluble”.
Take `COc1ccccc1Oc1c(NS(=O)(=O)c2ccc(C(C)(C)C)cc2)nc(-c2ncccn2)nc1OCCO` [Bosentan]: the “solubility in aqueous solution at pH 1.1” value in data set [1] (aqueous solution, pH 1.1) is 0.1 mg/100 ml. The “solubility in aqueous solution at pH 4.0” value in data set [1] (aqueous solution, pH 4.0) is 0.1 mg/100 ml. Further, in data set [1] (aqueous solution, pH 5.0), the “solubility in aqueous solution at pH 5.0” value was 0.2 mg/100 ml. Besides, in data set [1] (aqueous solution, pH 7.5), the “solubility in aqueous solution at pH 7.5” value is 43 mg/100 ml. In data set [1] (water), the solubility in water is 1.0 mg/100 ml. In addition, the “overall pKa” value in data set [2] is recorded as 5.46.
